Data from ChEMBL document CHEMBL1144170, “Syntheses and structure-activity relationships of novel, potent, and selective trans-2-[3-oxospiro[isobenzofuran-1(3H),1'-cyclohexan]-4'-yl]benzimidazole NPY Y5 receptor antagonists” (Bioorg Med Chem Lett, 2008).
≈ marks a conversion by molar mass, not a printed value.

Legend:
[1] = target: T1, Neuropeptide Y receptor type 5 (Homo sapiens, UniProt Q15761); assay: Displacement of [125I]PYY from human recombinant NPYY5 receptor expressed in mouse LMtk cells; assay type: cell-based
T1 sequence (Q15761 whole entry): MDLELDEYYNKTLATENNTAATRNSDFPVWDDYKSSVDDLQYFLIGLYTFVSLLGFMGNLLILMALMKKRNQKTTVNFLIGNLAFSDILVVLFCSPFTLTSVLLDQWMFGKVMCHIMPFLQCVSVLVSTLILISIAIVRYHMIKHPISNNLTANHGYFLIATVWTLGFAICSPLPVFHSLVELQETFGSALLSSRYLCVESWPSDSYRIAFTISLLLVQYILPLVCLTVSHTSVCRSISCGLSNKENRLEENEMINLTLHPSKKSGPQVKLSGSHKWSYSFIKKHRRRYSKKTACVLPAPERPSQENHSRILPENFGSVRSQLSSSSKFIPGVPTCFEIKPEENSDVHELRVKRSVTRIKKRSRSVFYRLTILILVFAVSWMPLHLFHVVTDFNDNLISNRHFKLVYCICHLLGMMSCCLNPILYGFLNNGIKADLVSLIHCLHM

[2] = target: T1, Neuropeptide Y receptor type 5; assay: Antagonist activity at human recombinant NPYY5 receptor expressed in mouse LMtk cells assessed as inhibition of NPY-induced calcium increase; assay type: functional, cell-based
[3] = Plasma concentration in rat plasma at 10 mg/kg, po after 2 hrs; assay type: ADME, organism-based; parameters: dose 10 mg/kg, route oral; details: read-out: Drug uptake
[4] = Ratio of drug level in brain to plasma in rat at 10 mg/kg, po after 2 hrs; assay type: ADME, organism-based; parameters: dose 10 mg/kg, route oral
[5] = Selectivity for human NPYY5 receptor over NPYY2 receptor
[6] = target: T2, Neuropeptide Y receptor type 2 (Homo sapiens, UniProt P49146); assay: Inhibition of NPYY2 receptor
T2 sequence (P49146 whole entry): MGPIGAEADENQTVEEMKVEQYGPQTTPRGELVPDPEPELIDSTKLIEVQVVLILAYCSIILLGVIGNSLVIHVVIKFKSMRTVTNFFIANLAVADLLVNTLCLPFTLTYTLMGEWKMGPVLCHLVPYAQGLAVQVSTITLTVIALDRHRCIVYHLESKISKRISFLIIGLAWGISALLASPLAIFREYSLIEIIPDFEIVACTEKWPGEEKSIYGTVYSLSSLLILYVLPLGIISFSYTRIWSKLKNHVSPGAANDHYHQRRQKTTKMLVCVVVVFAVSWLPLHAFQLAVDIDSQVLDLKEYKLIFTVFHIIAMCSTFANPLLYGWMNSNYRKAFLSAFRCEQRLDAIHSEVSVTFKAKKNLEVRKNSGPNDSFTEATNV

[7] = target: T3, Neuropeptide Y receptor type 1 (Homo sapiens, UniProt P25929); assay: Inhibition of NPYY1 receptor
T3 sequence (P25929 whole entry): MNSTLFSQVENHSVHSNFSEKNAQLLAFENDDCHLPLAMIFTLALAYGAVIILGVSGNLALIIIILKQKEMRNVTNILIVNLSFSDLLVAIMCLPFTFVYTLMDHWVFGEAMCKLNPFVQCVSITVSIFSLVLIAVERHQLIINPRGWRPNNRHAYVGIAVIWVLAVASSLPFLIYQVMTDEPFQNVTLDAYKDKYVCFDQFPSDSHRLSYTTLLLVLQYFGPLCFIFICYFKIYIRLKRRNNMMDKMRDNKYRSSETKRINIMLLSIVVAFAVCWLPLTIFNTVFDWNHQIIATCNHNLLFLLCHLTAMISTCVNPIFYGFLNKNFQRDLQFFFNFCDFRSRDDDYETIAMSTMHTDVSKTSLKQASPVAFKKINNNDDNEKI

[8] = Selectivity for human NPYY5 receptor over NPYY4 receptor
[9] = Selectivity for human NPYY5 receptor over NPYY1 receptor
[10] = target: Neuropeptide Y receptor type 4 (Homo sapiens, UniProt P50391); assay: Inhibition of NPYY4 receptor
[11] = Solubility in 0.2 M phosphate buffer at pH 6.8; assay type: physicochemical
[12] = Plasma concentration in rat plasma at 10 mg/kg, po after 4 hrs; assay type: ADME, organism-based; parameters: dose 10 mg/kg, route oral; details: read-out: Drug uptake
Brain = assay: Drug level in rat brain at 2.7 mg/kg, iv after 10 mins; assay type: ADME, organism-based; parameters: dose 2.7 mg/kg, route intravenous; details: in vivo
[13] = Ratio of drug level in brain to plasma at 2.7 mg/kg, iv after 10 mins; assay type: ADME, organism-based; parameters: dose 2.7 mg/kg, route intravenous; details: rat, read-out: BPR
[14] = Plasma concentration in rat plasma at 2.7 mg/kg, iv after 10 mins; assay type: ADME, organism-based; parameters: dose 2.7 mg/kg, route intravenous; details: read-out: Drug uptake

Neuropeptide Y receptor type 4, sequence (P50391 whole entry): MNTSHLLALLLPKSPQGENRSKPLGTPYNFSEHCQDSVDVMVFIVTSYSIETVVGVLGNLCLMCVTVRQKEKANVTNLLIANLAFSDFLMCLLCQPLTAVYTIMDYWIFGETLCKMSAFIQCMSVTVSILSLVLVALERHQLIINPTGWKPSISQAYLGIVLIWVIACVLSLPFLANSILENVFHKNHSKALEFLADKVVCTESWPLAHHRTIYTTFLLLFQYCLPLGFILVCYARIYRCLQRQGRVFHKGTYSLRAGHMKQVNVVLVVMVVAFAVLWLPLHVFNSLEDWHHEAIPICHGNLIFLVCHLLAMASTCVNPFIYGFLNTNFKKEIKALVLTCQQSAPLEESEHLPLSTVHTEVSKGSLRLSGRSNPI

Cn1c2cc(Cl)c(Cl)cc2nc1[C@H]1CC[C@@]2(CC1)OC(=O)c1ccccc12
IC50 [1]: > 1000 nM

O=C1O[C@]2(CC[C@H](c3nc4cc(Cl)c(-c5ccccc5)cc4[nH]3)CC2)c2ccccc21
IC50 [1]: 2.2 nM

N#Cc1ccc2[nH]c([C@H]3CC[C@@]4(CC3)OC(=O)c3ccccc34)nc2c1
IC50 [1]: 20 nM

Cn1nnc(-c2ccc3[nH]c([C@H]4CC[C@@]5(CC4)OC(=O)c4ccccc45)nc3c2)n1
IC50 [2]: 7.2 nM | concentration at 2 h [3]: 3200 nM | Kp at 2 h [4]: 0.12 | Selectivity ratio [5]: 1000 | IC50 [1]: 5.9 nM | IC50 [6]: > 10000 nM | IC50 [7]: > 10000 nM | Selectivity ratio [8]: 1000 | Selectivity ratio [9]: 1000 | IC50 [10]: > 10000 nM | solubility [11]: 5.9 µg/mL (≈ 14.7 µM) | concentration at 4 h [12]: 990 nM

Cc1nc(-c2ccc3[nH]c([C@H]4CC[C@@]5(CC4)OC(=O)c4ccccc45)nc3c2)no1
IC50 [2]: 7 nM | concentration at 2 h [3]: 400 nM | Selectivity ratio [5]: 1000 | IC50 [1]: 5.1 nM | IC50 [6]: > 10000 nM | IC50 [7]: > 10000 nM | Selectivity ratio [8]: 1000 | Selectivity ratio [9]: 1000 | IC50 [10]: > 10000 nM

O=C1O[C@]2(CC[C@H](c3nc4ccc(-c5ccc(F)cc5)cc4[nH]3)CC2)c2ccccc21
IC50 [1]: 1.7 nM

O=C(c1ccccc1)c1ccc2[nH]c([C@H]3CC[C@@]4(CC3)OC(=O)c3ccccc34)nc2c1
IC50 [1]: 2.4 nM

O=C1O[C@]2(CC[C@H](c3nc4cc(-c5noc(C(F)(F)F)n5)ccc4[nH]3)CC2)c2ccccc21
IC50 [1]: 2.1 nM

O=C1O[C@]2(CC[C@H](c3nc4ccccc4[nH]3)CC2)c2ccccc21
IC50 [1]: 91 nM

COC(=O)c1cc2[nH]c([C@H]3CC[C@@]4(CC3)OC(=O)c3ccccc34)nc2cc1Cl
IC50 [1]: 2.2 nM

COC(=O)c1cc2[nH]c([C@H]3CC[C@]4(CC3)OC(=O)c3ccccc34)nc2cc1Cl
IC50 [1]: 1000 nM

O=C1O[C@]2(CC[C@H](c3nc4cc(Br)ccc4[nH]3)CC2)c2ccccc21
IC50 [1]: 45 nM

O=C1O[C@]2(CC[C@H](c3nc4cc(-c5cccnc5)ccc4[nH]3)CC2)c2ccccc21
IC50 [1]: 3.1 nM

COC(=O)c1ccc2[nH]c([C@H]3CC[C@@]4(CC3)OC(=O)c3ccccc34)nc2c1
Drug uptake (Brain): 1.7 nmol/g | IC50 [1]: 7.7 nM | Kp at 10 min [13]: 0.55 | concentration at 10 min [14]: 3100 nM | solubility [11]: 0.6 µg/mL (≈ 1.59 µM)

Cc1nnc(-c2ccc3[nH]c([C@H]4CC[C@]5(CC4)OC(=O)c4ccccc45)nc3c2)o1
IC50 [1]: 1000 nM

O=C1O[C@]2(CC[C@H](c3nc4cc(Cl)c(C(F)(F)F)cc4[nH]3)CC2)c2ccccc21
IC50 [1]: 2.6 nM | solubility [11]: < 0.01 µg/mL

O=C1O[C@]2(CC[C@H](c3nc4cc(C(F)(F)F)ccc4[nH]3)CC2)c2ccccc21
IC50 [1]: 47 nM

O=C1O[C@]2(CC[C@H](c3nc4cc(Cl)ccc4[nH]3)CC2)c2ccccc21
IC50 [1]: 39 nM

O=C1O[C@]2(CC[C@H](c3nc4cc(-c5nnco5)ccc4[nH]3)CC2)c2ccccc21
IC50 [1]: 15 nM

Cc1nnc(-c2ccc3[nH]c([C@H]4CC[C@@]5(CC4)OC(=O)c4ccccc45)nc3c2)o1
IC50 [2]: 5.5 nM | concentration at 2 h [3]: 1400 nM | Kp at 2 h [4]: 0.05 | Selectivity ratio [5]: 1000 | IC50 [1]: 3.3 nM | IC50 [6]: > 10000 nM | IC50 [7]: > 10000 nM | Selectivity ratio [8]: 1000 | Selectivity ratio [9]: 1000 | IC50 [10]: > 10000 nM | solubility [11]: 0.94 µg/mL (≈ 2.35 µM) | concentration at 4 h [12]: 850 nM

O=C1O[C@]2(CC[C@H](c3nc4cc(Cl)c(Cl)cc4[nH]3)CC2)c2ccccc21
IC50 [1]: 8 nM

COC(=O)c1ccc2[nH]c([C@H]3CC[C@@]4(CC3)OC(=O)c3ccccc34)nc2c1Cl
IC50 [1]: 4.5 nM

O=C1O[C@]2(CC[C@H](c3nc4cc(-c5ccccn5)ccc4[nH]3)CC2)c2ccccc21
IC50 [1]: 2.4 nM

O=C1O[C@]2(CC[C@H](c3nc4ccc(-c5ccccc5)cc4[nH]3)CC2)c2ccccc21
IC50 [1]: 2.3 nM
